Measurements from US20250206779A1, “ANGIOTENSIN-(1-9) ANALOGUE BASED ON D AMINO ACIDS, PHARMACEUTICAL COMPOSITIONS AND USES THEREOF” (UNIVERSIDAD DE CHILE, priority 2021, published 2025).
Where a SMILES comes first, the peptide text is derived from it. [ ]: non-standard residue; d: D form.

Tests used:
cardiomyocytes = assay: Norepinephrine-induced cardiomyocyte hypertrophy, cell area and perimeter; type: cell-based, rat; settings: 100 μM peptide, norepinephrine 10 μM
Protocol: Cardiac myocytes were isolated from neonatal Sprague-Dawley rat ventricles. Cardiac myocytes were plated at 70% final density in gelatin-coated wells (12-well plates) or in 60-mm Petri dishes and maintained at 37° C. in a humidified atmosphere of 5% CO2/95% air for 24 h in Dulbecco's Modified Eagle's medium [(DMEM)/M199](4:1) containing 10% fetal bovine serum and 5% fetal calf serum. Serum was withdrawn 24 h before preincubation with 1, 10 or 100 μM retro-inverse angiotensin-(1-9) for 1 h; then, 10 μM norepinephrine (Sigma, St Louis, Missouri, USA) were added and the cultures were incubated for 24 h. […] After centrifugation at 12,000 r.p.m. for 15 min at 4° C., the supernatat was recovered; total protein content was determined by using Bradford (BioRad protein assay, BioRad, Hercules, CA, USA). […]
Cardiomyocyte hypertrophy is characterized by an increase of cell area and perimeter. Cell area and perimeter were analyzed as follows. […] Cell area and perimeter were determined in cells fixed with 4% paraformaldehyde for 10 min and permeabilized with 0.2% Triton X100 for 6 min. […] Cell staining was evaluated by epifluorescence microscopy. At least 100 cells from randomly selected fields were analyzed using Image J software (NIH). […]

[1] = system: cardiac myocytes isolated from neonatal Sprague-Dawley rat ventricles; assay: Norepinephrine-induced cardiomyocyte hypertrophy, western blot of β-MHC and ANP; type: cell-based; settings: 1, 10 or 100 μM peptide, 10 μM norepinephrine
Protocol: Cardiac myocytes were isolated from neonatal Sprague-Dawley rat ventricles. Cardiac myocytes were plated at 70% final density in gelatin-coated wells (12-well plates) or in 60-mm Petri dishes and maintained at 37° C. in a humidified atmosphere of 5% CO2/95% air for 24 h in Dulbecco's Modified Eagle's medium [(DMEM)/M199](4:1) containing 10% fetal bovine serum and 5% fetal calf serum. Serum was withdrawn 24 h before preincubation with 1, 10 or 100 μM retro-inverse angiotensin-(1-9) for 1 h; then, 10 μM norepinephrine (Sigma, St Louis, Missouri, USA) were added and the cultures were incubated for 24 h. Then cells were washed with PBS at 4° C. and then cells were lysed with 50 μL of RIPA lysis buffer (Tris-HCl 10 mM pH 7.4, EDTA 5 mM, NaCl 50 mM, deoxycholic acid 1%, Triton X-100 1% v/v) supplemented with phosphatase and protease inhibitors (Roche). After centrifugation at 12,000 r.p.m. for 15 min at 4° C., the supernatat was recovered; total protein content was determined by using Bradford (BioRad protein assay, BioRad, Hercules, CA, USA). Proteins were denatured in SDS-PAGE 4× buffer and resolved in 12% PAGE-SDS. After electrotransference, beta-myosin heavy chain (β-MHC) and atrial natriuretic peptide (ANP) were used as hypertrophic markers. β-tubulin was used as loading control. As expected, norepinephrine 10 μM for […], a cardiomyocyte hypertrophy inducer, triggered β-MHC and ANP increase (FIG. 3).

[2] = system: spontaneously hypertensive rats (SHR); assay: Cardiac hypertrophy by morphometry analysis in SHR; type: in vivo, rat; settings: SHR, 1,200 ng/kg/min, 14 days, left ventricle
Protocol: Experimental animal model. All procedures were performed in accordance with the Guide for the Care and Use of Laboratory Animals published by the U.S. National Institutes of Health (NIH Publication 85 23, 1985) and approved by our Institutional Bioethics Committee. The animals were housed under the continuous professional monitoring of the Medical Veterinary staff in the animal facility of the Pontificia Universidad Católica de Chile, under the following conditions: 12-h light-dark cycle; 21° C. ambient temperature; 50% humidity; adequate ventilation; noise-free environment; and food and water ad libitum. Male spontaneously hypertensive rats (SHR, age 12 weeks) and normotensive Wistar Kyoto rats (WKY, 12 weeks age) were used. […] Systolic blood pressure (SBP), diastolic blood pressure (DBP) and body weight (BW) were measured at the end of the treatment period and the animals were then sacrificed.
Measurement of cardiac hypertrophy by morphometry analysis. […] Cardiomyocyte size (area and perimeter) was determined as described by Ocaranza et al. (J. Hypertens. 2010; 28:1054-1064). […]

[3] = system: adult rat cardiac fibroblasts; assay: Cardiac fibroblast proliferation, cell count in Neubauer chamber; type: cell-based; settings: DMEM F-12 5% FBS, 24 h, trypan blue cell count
Protocol: Male Sprague-Dawley rats (250-300 g) were anesthetized with ketamine-xylazine (66 and 1.6 mg/kg i.p., respectively). Adult rat cardiac fibroblasts were isolated by retrograde aortic perfusion. Briefly, hearts were digested with collagenase type B solution for 1 h, and cells were centrifuged at 500 rpm for 2 min. The supernatant, mainly adult rat cardiac fibroblasts, was centrifuged at 1000 rpm for 10 min, resuspended in Dulbecco's Modified Eagle Medium: Nutrient Mixture F-12 (DMEM F-12) plus 15% fetal bovine serum (FBS) and then seeded in nontreated culture dishes during 3 h. Cells were washed with phosphate buffered saline to eliminate debris and nonadherent cells. Adult rat cardiac fibroblasts were used at passage one and seeded on 60 mm cell culture dishes in DMEM F-12 plus 10% FBS and incubated at […] for 3 h. To synchronize cells, they were washed and incubated in DMEM F-12 (without serum, 0% FBS) for 24 h before experimentation. Cell proliferation was determined in cardiac fibroblasts incubated for 24 h with and without retro-inverse angiotensin-(1-9) in DMEM F-12 5% FBS. Cells were trypsinized and cell number was determined using trypan blue method in a Neubauer chamber.

## CC[C@@H](C)[C@@H](NC(=O)[C@@H](Cc1c[nH]cn1)NC(=O)[C@H]1CCCN1C(=O)[C@@H](Cc1ccccc1)NC(=O)[C@H](N)Cc1c[nH]cn1)C(=O)N[C@H](Cc1ccc(O)cc1)C(=O)N[C@@H](C(=O)N[C@H](CCCNC(=N)N)C(=O)N[C@H](CC(=O)O)C(=O)O)C(C)C [retro-inverse angiotensin-(1-9), NH2-^DH^DF^DP^DH^DI^DY^DV^DR^DD-COOH] (H-[dH][dF][dP][dH][dI][dY][dV][dR][dD]-OH)
cardiomyocytes
  increase of cell area induced by norepinephrine: inhibited, in a dose response manner
  increase of cell perimeter induced by norepinephrine: inhibited, in a dose response manner
[1]
  increase of ANP induced by norepinephrine: inhibited, in a dose response manner
  increase of β-MHC induced by norepinephrine: inhibited, in a dose response manner
[2]
  increase of area of cardiomyocytes induced by hypertension: reversed the increase
  increase of perimeter of cardiomyocytes induced by hypertension: reversed the increase
[3]
  fibroblast proliferation: inhibited fibroblast proliferation
